From patent US20170367330A1, “Method for stimulating induced insect resistance of rice” (ZHENJIANG UNIVERSITY, priority 2015, published 2017)

How the values were obtained:
Format in all cases: in vivo
[1] = system: nymphs of the brown planthopper; experiment: Spray treatment of rice stems and leaves, survival of brown planthopper nymphs; details: for survival rate of the brown planthopper: 8th day
Protocol: (§1) According to the second preferred embodiment of the present invention, the applied p-Fluorophenoxyacetic acids have concentrations of 20 mg/L and 100 mg/L. The rice is cultivated through the nutrient solution, and planted by each individual rice plant; the p-Fluorophenoxyacetic acid is prepared with water to have a certain concentration (20 mg/L or 100 mg/L), and thereafter stems and leaves of the rice are treated with spraying through a small sprayer; and tap water is adopted as a control group. After drops on the stems and leaves of the rice are totally dry, a special glass cover (with a diameter of 4 cm, a height of 8 cm, and 48 holes having a diameter of 0.8 mm uniformly provided on a wall) is placed on a stem of each individual rice plant, and 15 newly-hatched nymphs of the brown planthopper or the white-backed planthopper are introduced into each glass cover, wherein a top part of each glass cover is sealed by a circular sponge. The experiment is conducted in a phytotron with a temperature of 28±2° C., a humidity of 70-80% and 14 hours of illumination, survival numbers of the nymphs of the brown planthopper and the white-backed planthopper on each plant are recorded daily, and the experiment is repeated for 10 times.

[2] = system: contents of 4-hydroxybenzoic acid and γ-aminobutyric acid in the rice; experiment: Induced mechanism: contents of defense compounds in rice after root treatment; details: 5 mg/L in nutrient solution, 72 hours after treating
Protocol: According to the fourth preferred embodiment of the present invention, the applied p-Fluorophenoxyacetic acid has a concentration of 5 mg/L. The rice is cultivated through the nutrient solution, and planted by each individual rice plant; the p-Fluorophenoxyacetic acid is added into the nutrient solution of the rice until a final concentration is 5 mg/L, and another nutrient solution without adding the p-Fluorophenoxyacetic acid is adopted as a control group. The experiment is repeated for 5 times and conduced in a phytotron with a temperature of 28±2° C., a humidity of 70-80%, and 14 hours of illumination. […] The 4-hydroxybenzoic acid belongs to a phenolic acid defense compound, and the γ-aminobutyric acid belongs to a non-protein amino acid, which have direct toxicity effects on the insect pests and are able to influence a peripheral nervous system of the insects. Treating the rice with the p-Fluorophenoxyacetic acid is able to increase contents of the defense compounds, thereby generating a negative effect on the insect pests and increasing a resistance of the rice against the insect pests.

[3] = system: nymphs of the white-backed planthopper; experiment: Spray treatment of rice stems and leaves, survival of white-backed planthopper nymphs
Protocol: as §1

[4] = system: Third-instar nymphs of the white-backed planthopper; experiment: Contact toxicity, spotting on third-instar nymphs; details: for survival rates of the nymphs of the planthoppers: spotted 1 μL
Protocol: In the experiment for measuring the contact toxicity of the p-Fluorophenoxyacetic acid on the nymphs of the rice planthoppers, the p-Fluorophenoxyacetic acids respectively having concentrations of 5 mg/L, 20 mg/L, and 50 mg/L are adopted, and distilled water not containing the p-Fluorophenoxyacetic acid is adopted as a control group. Third-instar nymphs of the white-backed planthopper, being narcotized by carbon dioxide, are spotted with the p-Fluorophenoxyacetic acid having the corresponding concentration or the distilled water (1 μL for each planthopper); after waking up, the planthoppers are fed on rice plants having an age of 30 days, wherein 15 planthoppers are fed on each rice plant; and the rice is placed in a phytotron with a temperature of 28±2° C., a humidity of 70-80% and 14 hours of illumination. The experiment is repeated for 10 times. Survival numbers of the nymphs of the planthoppers are observed and recorded respectively 24 hours and 48 hours after treatment.

[5] = system: nymphs of the white-backed planthopper; experiment: Root absorption treatment of rice, survival of white-backed planthopper nymphs
Protocol: (§2) According to the first preferred embodiment of the present invention, the applied p-Fluorophenoxyacetic acids have concentrations of 1 mg/L and 10 mg/L. The rice is cultivated through the nutrient solution, and planted by each individual rice plant; the p-Fluorophenoxyacetic acid is added into the nutrient solution until a final concentration is 1 mg/L or 10 mg/L; and the nutrient solution without adding the p-Fluorophenoxyacetic acid is adopted as a control group. After treating with the p-Fluorophenoxyacetic acid for 12 hours, a special glass cover (with a diameter of 4 cm, a height of 8 cm, and 48 holes having a diameter of 0.8 mm uniformly provided on a wall) is placed on a stem of each individual rice plant, and 15 newly-hatched nymphs of the brown planthopper or the white-backed planthopper are introduced into each glass cover, wherein a top part of each glass cover is sealed by a circular sponge. The experiment is conducted in a phytotron with a temperature of 28±2° C., a humidity of 70-80% and 14 hours of illumination, survival numbers of the nymphs of the brown planthopper or the white-backed planthopper on each plant are recorded daily, and the experiment is repeated for 10 times.

[6] = system: nymphs of the white-backed planthopper; experiment: Stomach toxicity in planthopper artificial diet; details: for survival rate of the nymphs of the white-backed planthopper: artificial diet
Source text: In order to exclude possible influences of the p-Fluorophenoxyacetic acid itself on a survival rate of nymphs of the rice planthoppers, the third preferred embodiment of the present invention measures stomach toxicity and contact toxicity of the p-Fluorophenoxyacetic acids having different concentrations on the nymphs of the rice planthoppers. In the experiment for measuring the stomach toxicity of the p-Fluorophenoxyacetic acid on the nymphs of the rice planthoppers, the p-Fluorophenoxyacetic acids, having concentrations of 5 mg/L, 20 mg/L and 50 mg/L, are respectively added into planthopper artificial diets, and another planthopper artificial diet not containing the p-Fluorophenoxyacetic acid is adopted as control. The planthopper artificial diets containing the p-Fluorophenoxyacetic acids of different concentrations are respectively wrapped by a Parafilm sealing film and then placed at two ends (20 μL at one end) of a glass two-way tube having a diameter of 4 cm and a height of 8 cm, and 15 newly-hatched nymphs of the white-backed planthopper are introduced into each tube; wherein the glass two-way tube, in which the planthopper artificial diet not containing the p-Fluorophenoxyacetic acid is placed, is adopted as a control group. All the glass two-way tubes are placed in a phytotron (with a temperature of 28° C. and 12 hours of illumination), the artificial diet in each tube is changed once a day, and the survival number of the nymphs of the white-backed planthopper in each tube is recoded daily. The experiment is repeated for 10 times.

[7] = system: nymphs of the brown planthopper; experiment: Root absorption treatment of rice, survival of brown planthopper nymphs; details: for survival rate of the brown planthopper: 8th day
Protocol: as §2

[8] = from the 2nd day after treating, FIG. 2

Question: For O=C(O)COc1ccc(F)cc1 [p-Fluorophenoxyacetic acid], which “survival rate of the brown planthopper” value ([1]; 20 mg/L) is on record?
Answer: 60.3%

Question: And the “survival rate of the brown planthopper” value ([1]; 100 mg/L)?
Answer: 19.2%

Question: And the “survival rates of the nymphs of the brown planthopper, course” value [1, 8]?
Answer: decreased obviously

Question: What about the “content of the 4-hydroxybenzoic acid of the experimental group versus the control group” value [2] of the same compound?
Answer: 2.12 times

Question: What about the “content of the γ-aminobutyric acid of the experimental group versus the control group” value [2] of the same compound?
Answer: 2.86 times

Question: What about the “survival rate of the white-backed planthopper” value ([3]; 20 mg/L, 8th day) of the same compound?
Answer: 66.1%

Question: And the “survival rate of the white-backed planthopper nymphs” value ([3]; 100 mg/L, 8th day)?
Answer: 23.2%

Question: What about the “survival rates of the nymphs of the white-backed planthopper, course” value [3, 8] of the same compound?
Answer: decreased obviously

Question: What about the “survival rates of the nymphs of the planthoppers” value ([4]; 5 mg/L, 24 hours after treating) of the same compound?
Answer: 92.0%

Question: And the “survival rates of the nymphs of the planthoppers” value ([4]; 5 mg/L, 48 hours after treating)?
Answer: 92.0%

Question: And the “survival rates of the nymphs of the planthoppers” value ([4]; 20 mg/L, 24 hours after treating)?
Answer: 93.1%

Question: What about the “survival rates of the nymphs of the planthoppers” value ([4]; 20 mg/L, 48 hours after treating) of the same compound?
Answer: 91.6%

Question: What about the “survival rates of the nymphs of the planthoppers” value ([4]; 50 mg/L, 24 hours after treating) of the same compound?
Answer: 92.0%

Question: What about the “survival rates of the nymphs of the planthoppers” value ([4]; 50 mg/L, 48 hours after treating) of the same compound?
Answer: 90.8%

Question: And the “contact toxicity on the planthoppers” value ([4]; spotted 1 μL, 5, 20 and 50 mg/L)?
Answer: no contact toxicity

Question: What about the “survival rate of the white-backed planthopper” value ([5]; 1 mg/L in nutrient solution, 8th day) of the same compound?
Answer: 41.3%

Question: What about the “survival rate of white-backed planthopper nymphs” value ([5]; 10 mg/L in nutrient solution, 8th day) of the same compound?
Answer: 3.1%

Question: What about the “survival rates of the nymphs of the white-backed planthopper, course” value ([5]; from the 2nd day after treating, FIG. 1) of the same compound?
Answer: decreased obviously

Question: What about the “survival rate of the nymphs of the white-backed planthopper” value ([6]; 5 mg/L, 2nd day) of the same compound?
Answer: 85.5%

Question: And the “survival rate of the nymphs of the white-backed planthopper” value ([6]; 5 mg/L, 4th day)?
Answer: 58.6%

Question: And the “survival rate of the nymphs of the white-backed planthopper” value ([6]; 20 mg/L, 2nd day)?
Answer: 87.4%

Question: What about the “survival rate of the nymphs of the white-backed planthopper” value ([6]; 20 mg/L, 4th day) of the same compound?
Answer: 54.3%

Question: And the “survival rate of the nymphs of the white-backed planthopper” value ([6]; 50 mg/L, 2nd day)?
Answer: 81.3%

Question: What about the “survival rate of the nymphs of the white-backed planthopper” value ([6]; 50 mg/L, 4th day) of the same compound?
Answer: 57.6%

Question: What about the “stomach toxicity on the planthoppers” value ([6]; artificial diet, 5, 20 and 50 mg/L) of the same compound?
Answer: no stomach toxicity

Question: What about the “survival rate of nymphs of the rice planthoppers, maximum decrease” value ([7]; general statement in the summary, rice planthoppers, concentration not given) of the same compound?
Answer: below 10%

Question: What about the “survival rate of the brown planthopper” value ([7]; root absorption, 1 mg/L in nutrient solution) of the same compound?
Answer: 35.1%

Question: What about the “survival rate of the brown planthopper” value ([7]; root absorption, 10 mg/L in nutrient solution) of the same compound?
Answer: 1.5%

Question: What about the “survival rates of the nymphs of the brown planthopper, course” value ([7]; root absorption, from the 2nd day after treating, FIG. 1) of the same compound?
Answer: decreased obviously
